Reference: publication PMC4900628, “Critical Evaluation of P2X7 Receptor Antagonists in Selected Seizure Models” (PLoS ONE, 2016)

Experiments:
rat P2X7R = molecular target: T1, rat P2X7R (Rattus norvegicus, UniProt Q64663); experiment: fluorometric Ca2+ assay (ATP-induced [Ca2+]i response) in HEKrP2X7 cells; format: cell-based; settings: for IC50: HEKrP2X7 cells, fluo-4, 1 mM ATP, read-out: Potency IC50 ± SEM, Rat P2X7R
T1 construct: expressed in transfected cells; host or cells: HEK293 Flp-In T-REx (HEKrP2X7), tetracycline-induced
T1 sequence (Q64663 1-595): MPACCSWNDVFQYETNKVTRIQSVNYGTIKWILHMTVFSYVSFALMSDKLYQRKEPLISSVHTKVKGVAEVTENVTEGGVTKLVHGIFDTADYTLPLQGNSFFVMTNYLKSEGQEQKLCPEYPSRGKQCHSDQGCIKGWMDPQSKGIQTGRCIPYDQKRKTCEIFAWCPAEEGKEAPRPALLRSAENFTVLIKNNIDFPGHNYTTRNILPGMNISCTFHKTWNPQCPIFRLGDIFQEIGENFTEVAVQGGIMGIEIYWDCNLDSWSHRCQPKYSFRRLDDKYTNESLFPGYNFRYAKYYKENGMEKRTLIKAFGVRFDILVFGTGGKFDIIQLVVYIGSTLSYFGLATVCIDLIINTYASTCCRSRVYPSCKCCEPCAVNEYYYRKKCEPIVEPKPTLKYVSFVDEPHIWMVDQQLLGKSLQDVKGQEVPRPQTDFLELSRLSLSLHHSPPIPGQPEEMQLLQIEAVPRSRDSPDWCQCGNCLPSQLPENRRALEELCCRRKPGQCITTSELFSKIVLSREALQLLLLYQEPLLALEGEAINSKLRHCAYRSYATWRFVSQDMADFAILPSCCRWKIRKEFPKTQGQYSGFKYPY
Description: Cells were grown in a humidified incubator at 37°C in an atmosphere supplemented with 5% CO2. […] HEK293mP2X7 were cultured in DMEM under similar conditions as described above, but containing 100 μg/ml zeocin (Invitrogen). […] Expression of the transgene was induced by supplementing the medium with 1 μg/ml tetracycline (Sigma-Aldrich, Taufkirchen, Germany) 24 h prior to the experiments. All fluorometric Ca^2+ assays in cell suspensions were performed in 384-microwell plates (Corning, No. 3655, Lowell, MA, USA) with a fluorescence-imaging microplate reader (POLARstar Omega, BMG Labtech, Offenburg, Germany) (for details, see [61, 68]). […] Microwell plates were repetitively scanned every 16 s in the fast scanning mode of the device. […] Data were normalized to the baseline values before ATP application (F/F0). […] ATP-solution was freshly prepared in Mg^2+-free HBS solution and adjusted to pH 7.4. Aliquots of stock solutions were stored at -20°C and freshly diluted with the appropriate HBS solution. […] Results are expressed as mean ± SEM. […] In the PTZ-T, the number of animals in the group with clonic seizures and the latency time were analysed using Fisher's exact probability test and the Mann-Whitney rank sum test, respectively. For multiple comparisons of the latency time a one-way ANOVA with the Holm-Sidak post hoc test was used. The influence of AFC on the plasma and brain concentrations of the antiepileptic drugs was statistical compared using the same procedure. In the PTZ-kindling model, the mean seizure stage within a group was calculated in relation to the number of PTZ-injections. Statistical comparison between vehicle- and compound-treated groups in this model was performed with two-way repeated measures ANOVA, followed by the Holm-Sidak post hoc test. […] In fully kindled rats, the calculated mean seizure stage within a group after vehicle- and compound-treatment were compared using a paired t-test. P < 0.05 was the accepted minimum level of significance.

PTZ-induced kindling = PTZ-induced kindling development; format: in vivo, rats; settings: for mean seizure stages after 8-day treatment-free interval (21st-25th PTZ-injection, vehicle only): rats formerly treated with TIIAS 30, BBG 50, AFC 30 mg/kg i.p. or JNJ 15 mg/kg s.c.; for mean number of PTZ-injections needed to produce the first generalized seizure (≥ stage 3) vs vehicle / effect on PTZ-kindling development (mean seizure stages): rats; for mean number of PTZ-injections needed to produce the first generalized seizure (≥ stage 3) vs vehicle: TIIAS 30, BBG 50, AFC 30 mg/kg i.p., JNJ 15 mg/kg s.c.; for effect on PTZ-kindling development (mean seizure stages): TIIAS 30 and BBG 50 mg/kg i.p. 45 min, AFC 30 mg/kg i.p. 45 min, JNJ 15 mg/kg s.c. 30 min before each PTZ 35 mg/kg i.p., every 48 h, 20 injections
Description: For PTZ-kindling, the initial sub-convulsive dose of PTZ (35 mg/kg) was injected i.p. once every 48 h (on Monday, Wednesday, and Friday, three times a week). After vehicle or vehicle/compound pre-treatment, PTZ was injected and the rats were individually observed for 30 min. Behavioural seizure responses were scored according to a defined graduation from stage 0 to stage 5. […] Rats received 20 successive PTZ-kindling stimulations. After an 8-day treatment-free interval, the animals were re-tested with PTZ (21st-25th injection) and vehicle pre-treatment without the compounds. […] Additional care was taken the hours following generalized tonic-clonic seizures and status epilepticus by providing the animals with soft food pellets and tap water if required. All efforts were made to minimize suffering. […] Chemicals, Toronto, Canada) was slowly added. The pH was adjusted with 1N NaOH (similar amount of NaOH as HCl), all with continuous stirring. […] The drug solutions or suspensions were prepared immediately before use; all doses refer to the salts. Animals in the control group received equivalent volumes of the vehicle (in mice always 10 ml/kg, in rats 1 ml/kg [JNJ], 3 ml/kg [AFC] or 4 ml/kg [BBG, TIIAS], depending on the solubility of the different compounds). Doses and peak time effects were selected on the basis of effective doses from corresponding in vivo studies in the literature: BBG (e.g.), tanshinone IIA (e.g.) and from manufacturer's experimental data: AFC, JNJ (see, [80]). Data were analysed using SigmaPlot (vers. 12.0, Systat Software, Erkrath, Germany) and SPSS (IBM SPSS Statistics 20, […], Germany), respectively. Results are expressed as mean ± SEM. […] In the MES-T, the current intensity inducing tonic hindlimb extensions in 50% of the mice (CC50 values with confidence limits for 95% probability) and the statistical significance was calculated using Probit analysis (SPSS). […] In the PTZ-T, the number of animals in the group with clonic seizures and the latency time were analysed using Fisher's exact probability test and the Mann-Whitney rank sum test, respectively. For multiple comparisons of the latency time a one-way ANOVA with the Holm-Sidak post hoc test was used. The influence of AFC on the plasma and brain concentrations of the antiepileptic drugs was statistical compared using the same procedure. In the PTZ-kindling model, the mean seizure stage within a group was calculated in relation to the number of PTZ-injections. Statistical comparison between vehicle- and compound-treated groups in this model was performed with two-way repeated measures ANOVA, followed by the Holm-Sidak post hoc test. The mean number of PTZ-injections needed to produce the first generalized seizure (≥ stage 3 convulsions) in the vehicle- versus compound-treated groups was statistically compared using a Mann-Whitney rank sum test. In fully kindled rats, the calculated mean seizure stage within a group after vehicle- and compound-treatment were compared using a paired t-test. P < 0.05 was the accepted minimum level of significance.

Row | SMILES | IC50 (rat P2X7R) [nM] | mean seizure stages after 8-day treatment-free interval (21st-25th PTZ-injection, vehicle only) (PTZ-induced kindling) | mean number of PTZ-injections needed to produce the first generalized seizure (≥ stage 3) vs vehicle (PTZ-induced kindling) | effect on PTZ-kindling development (mean seizure stages) (PTZ-induced kindling) | inhibition at 0.02 µM (rat P2X7R; read-out: inhibition of P2X7R / ATP-induced Ca2+ response corresponding to the achieved rat brain concentration) [%]
1 | O=C(NCC1(N2CCN(c3ccccc3)CC2)CCOCC1)c1cccnc1Sc1ccccc1 [JNJ-47965567, N-[[4-(4-phenyl-piperazin-1-yl)tetrahydro-2H-pyran-4-yl]-methyl]-2-(phenyl-thio) nicotinamide] | 3 ± 0.1 | persisted after compound treatment ceased | required significantly more PTZ-injections | significantly reduced the PTZ-kindling development | 
2 | CCOc1ccc(Nc2ccc(/C(=C3C=C/C(=[N+](/CC)Cc4cccc(S(=O)(=O)[O-])c4)C=C/3C)c3ccc(N(CC)Cc4cccc(S(=O)(=O)O)c4)cc3C)cc2)cc1 [Brilliant Blue G] | 50 ± 10 | no differences of the mean seizure stages | required significantly more PTZ-injections | moderate, yet significant retarding effect on kindling development | ~30
3 | Cc1c(S(=O)(=O)[O-])oc2c1C(=O)C(=O)c1c-2ccc2c1CCCC2(C)C.[Na+] [Tanshinone TIIAS, tanshinone IIS sulfonic sodium] | ≥ 30000 | no differences of the mean seizure stages | required significantly more PTZ-injections | moderate, yet significant retarding effect on kindling development | 
